Common to all, as to test: relative viability (nuclei count vs DMSO), 5 days (fraction); higher = more cells survive
Compound in experiment [1]: C(C(=O)C(=O)O)Br [Bromopyruvate] + CC1(C)CCC(c2ccc(Cl)cc2)=C(CN2CCN(c3ccc(C(=O)NS(=O)(=O)c4ccc(N[C@H](CCN5CCOCC5)CSc5ccccc5)c(S(=O)(=O)C(F)(F)F)c4)cc3)CC2)C1 [Navitoclax] (partner 0.5 µM)
A digest of the protocol:
(§1)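 Nuclei were stained with Hoechst during a one-step fixation (final 0.05% Triton X-100, 1% formaldehyde, 1 ug/ml Hoechst) carried out 5 days after dosing, then counted on 4× images. The cells, lung cancer lines in 1536-well plates, had been dosed by pin tool the day after seeding with one drug alone or a fixed anchor-drug dose plus five library-drug doses (not always all listed) in √10 steps. Relative viability is the nuclei count in treated wells divided by that in vehicle wells, and each value is the median of duplicate plates.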

Compound in experiment [2]: C(C(=O)C(=O)O)Br [Bromopyruvate] + CS(=O)(=O)N1CCN(Cc2cc3nc(-c4cccc5[nH]ncc45)nc(N4CCOCC4)c3s2)CC1 [Pictilisib] (partner 1 µM)
The essentials: as §1

Compound in the experiment “Bromopyruvate + Olaparib”: C(C(=O)C(=O)O)Br [Bromopyruvate] + O=C(c1cc(Cc2n[nH]c(=O)c3ccccc23)ccc1F)N1CCN(C(=O)C2CC2)CC1 [Olaparib] (partner 8 µM)
A digest of the protocol:
as §1

Compound in the experiment “Bicalutamide + Dasatinib”: CC(O)(CS(=O)(=O)c1ccc(F)cc1)C(=O)Nc1ccc(C#N)c(C(F)(F)F)c1 [Bicalutamide] + Cc1nc(Nc2ncc(C(=O)Nc3c(C)cccc3Cl)s2)cc(N2CCN(CCO)CC2)n1 [Dasatinib] (partner 0.075 µM)
A digest of the protocol:
as §1

Relative viability data for one cell line are collected here from the supplement of paper PMC10307832.

Regarding UMC-11, the relative viability worked out at 0.289 in experiment [1] (first compound 1 µM); 0.291 in experiment [1] (first compound 3.162 µM); 0.304 in experiment [1] (first compound 10 µM); 0.297 in experiment [1] (first compound 31.62 µM); 0.288 in experiment [1] (first compound 100 µM); 0.797 in experiment [2] (first compound 1 µM). Further, the relative viability in experiment [2] (first compound 3.162 µM) was determined as 0.797; in experiment [2] (first compound 10 µM), 0.956; in experiment [2] (first compound 31.62 µM) it was 0.78; in experiment [2] (first compound 100 µM), 0.78; with Bromopyruvate + Olaparib (first compound 1 µM), 0.366; with Bromopyruvate + Olaparib (first compound 3.162 µM), 0.356. Further, the relative viability with Bromopyruvate + Olaparib (first compound 10 µM) stood at 0.374; with Bromopyruvate + Olaparib (first compound 31.62 µM), 0.35; with Bromopyruvate + Olaparib (first compound 100 µM) it was 0.393; in the experiment with Bicalutamide + Dasatinib (first compound 0.08 µM) it was 0.523; with Bicalutamide + Dasatinib (first compound 0.253 µM) it was 0.399; with Bicalutamide + Dasatinib (first compound 0.8 µM), 0.576. Besides, the relative viability in the experiment with Bicalutamide + Dasatinib (first compound 2.53 µM) is 0.431.
